{"source": "patent US11512089B2", "about": "“Substituted [1,2,4]triazolo[3,4-a]phthalazines as modulators of GABAA receptor activity” (SHANGHAI SIMR BIOTECHNOLOGY CO., LTD, priority 2018, dated 2022)", "origin": "cited, not measured here", "tested_on": "α5-GABAA receptor", "conditions": "cited from earlier work", "data": [{"smiles": "Cc1cc(-c2nncc3c(C(C)(C)C)c(OCc4ncnn4C)nn23)no1", "note": "[MRK016, 3-tert-butyl-7-(5-methylisoxazol-3-yl)-2-(1-methyl-1H-1,2,4-triazol-5-ylmethoxy)pyrazolo[1,5-d][1,2,4]triazine]", "values": [{"measurement": "block of the binding of (^3H)R0-15-1788 in brain", "result": "efficiently block"}]}]}
